Assay results: US8461329B2, “Isoquinoline derivative” (Taisho Pharmaceutical Co., Ltd., priority 2008, dated 2013)
Where two headings read alike, the source gives them in different places.

Biological target: T1, CRTH2 (KB8 cells) (Homo sapiens, UniProt Q9Y5Y4)
T1 construct: host or cells: KB8 cells (human CRTH2 expression cell)
T1 sequence (Q9Y5Y4 1-395): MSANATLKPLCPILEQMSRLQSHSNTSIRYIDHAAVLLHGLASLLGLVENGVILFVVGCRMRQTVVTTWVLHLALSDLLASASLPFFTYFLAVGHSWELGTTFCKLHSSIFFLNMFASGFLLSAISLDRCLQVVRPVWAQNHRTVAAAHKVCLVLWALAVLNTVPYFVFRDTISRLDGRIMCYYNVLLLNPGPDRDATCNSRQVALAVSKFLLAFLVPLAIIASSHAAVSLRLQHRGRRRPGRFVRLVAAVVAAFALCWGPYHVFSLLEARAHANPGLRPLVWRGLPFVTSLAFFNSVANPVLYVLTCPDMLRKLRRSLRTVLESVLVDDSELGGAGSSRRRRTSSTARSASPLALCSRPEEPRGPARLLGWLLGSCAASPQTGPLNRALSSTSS
Experiment: CRTH2 antagonist test (PGD2-induced intracellular calcium ion concentration increase in KB8 cells)
Type: cell-based
Protocol: The antagonist activity of the compound of the present invention was considered by using the intracellular calcium ion concentration increase reaction induced when the prostaglandin D2 was added to KB8 cells.
Fluo-4-AM (4-(6-acetoxymethoxy-2,7-difluoro-3-oxo-9-xanthenyl)-4′-methyl-2,2′-(ethylenedioxy)dianilide-N,N,N′,N′-tetraacetic acid tetrakis(acetoxymethyl) ester (SIGMA, final concentration: 1 μM) was added to KB8 cells, and the cells were incubated at 37° C. for 30 min, washed with phosphate buffer (Invitrogen), and then suspended in Hank's balanced salt solution (Invitrogen)) containing a reaction buffer solution (10 mM HEPES (Invitrogen), and 1 mM calcium chloride (SIGMA). The suspension was dispensed in a 96 well plate (Nunc) so that 2×10^5 cells/well were placed, and the compound of the present invention and PGD2 (final concentration: 100 nM) were added. The fluorescence intensity thereof was measured over time by using FDSS6000 (Hamamatsu Photonics), and thus the maximum fluorescence intensity value “d” was obtained. The same procedure was carried out in the absence of the compound, and the maximum fluorescence intensity value “e” was obtained; and the same procedure was carried out in the absence of the compound and […], and the maximum fluorescence intensity value “f” was obtained.
The calcium ion concentration increase inhibition rate of a compound was calculated by the following calculation formula: Inhibitory rate(%)=[1−(d−f)/(e−f)]×100
That is to say, by using calcium ion concentration increase inhibitory rates of compounds to be tested having various concentrations, the IC50 value was calculated according to a dose-dependent inhibition curve analyzed by using XLfit (IDBS) as a data analysis software, and the value was defined as an indicator of the antagonist activity. In Tables, A denotes an inhibitory activity showing the IC50 value of less than 50 nM; B denotes an inhibitory activity showing the IC50 value of 50 nM or greater and less than 500 nM; C denotes an inhibitory activity showing the IC50 value of 500 nM or greater and less than 1000 nM; and D denotes an inhibitory activity showing the IC50 value of 1000 nM or greater.

[1] = PGD2 final concentration 100 nM, Fluo-4-AM fluorescence, read-out: antagonist activity (IC50 value, inhibition of calcium ion concentration increase)

IC50 [1] | IC50 (PGD2 100 nM, Fluo-4 calcium fluorescence, read-out: CRTH2 antagonist activity IC50 value) | SMILES
50 to 500 nM |  | Cc1ccc(CCNC(=O)c2ccc(Cc3ncc(CC(=O)O)c4ccccc34)cc2)cc1C [Example 168]
50 to 500 nM |  | Cc1ccc(C)c(CCNC(=O)c2ccc(Cc3ncc(CC(=O)O)c4ccccc34)cc2)c1 [Example 169]
50 to 500 nM |  | COc1ccc(CCNC(=O)c2ccc(Cc3ncc(CC(=O)O)c4ccccc34)cc2)cc1Cl [Example 170]
50 to 500 nM |  | COc1ccc(CCNC(=O)c2ccc(Cc3ncc(CC(=O)O)c4ccccc34)cc2)cc1C [Example 171]
50 to 500 nM |  | O=C(O)Cc1cnc(Cc2ccc(C(=O)NCCc3cccc(Br)c3)cc2)c2ccccc12 [Example 172]
≥ 1000 nM |  | O=C(O)Cc1cnc(Cc2ccc(C(=O)NCCc3ccc(C(=O)O)cc3)cc2)c2ccccc12 [Example 173]
50 to 500 nM |  | O=C(O)Cc1cnc(Cc2ccc(C(=O)NCCc3ccc([N+](=O)[O-])cc3)cc2)c2ccccc12 [Example 174]
≥ 1000 nM |  | O=C(O)Cc1cnc(Cc2ccc(C(=O)NCCc3ccccn3)cc2)c2ccccc12 [Example 175]
≥ 1000 nM |  | O=C(O)Cc1cnc(Cc2ccc(C(=O)NCCc3cccnc3)cc2)c2ccccc12 [Example 176]
≥ 1000 nM |  | O=C(O)Cc1cnc(Cc2ccc(C(=O)NCCc3ccncc3)cc2)c2ccccc12 [Example 177]
50 to 500 nM |  | O=C(O)Cc1cnc(Cc2ccc(C(=O)NCCOc3ccc(Cl)cc3)cc2)c2ccccc12 [Example 178]
< 50 nM |  | O=C(O)Cc1cnc(Cc2ccc(C(=O)NCCc3c[nH]c4ccccc34)cc2)c2ccccc12 [Example 179]
< 50 nM |  | O=C(O)Cc1cnc(Cc2ccc(C(=O)NCCc3ccc(Cl)cc3Cl)cc2)c2ccccc12 [Example 180]
50 to 500 nM |  | O=C(O)Cc1cnc(Cc2ccc(C(=O)NCCc3ccccc3F)cc2)c2ccccc12 [Example 181]
50 to 500 nM |  | O=C(O)Cc1cnc(Cc2ccc(C(=O)NCCc3cccc(F)c3)cc2)c2ccccc12 [Example 182]
< 50 nM |  | O=C(O)Cc1cnc(Cc2ccc(C(=O)NCCc3ccccc3Br)cc2)c2ccccc12 [Example 183]
50 to 500 nM |  | COc1ccccc1CCNC(=O)c1ccc(Cc2ncc(CC(=O)O)c3ccccc23)cc1 [Example 184]
≥ 1000 nM |  | O=C(O)Cc1cnc(Cc2ccc(C(=O)NCCN3CCOCC3)cc2)c2ccccc12 [Example 185]
500 to 1000 nM |  | CCCCNC(=O)c1ccc(Cc2ncc(CC(=O)O)c3ccccc23)cc1 [Example 186]

IC50 [1] | IC50 (PGD2 100 nM, Fluo-4 calcium fluorescence, read-out: CRTH2 antagonist activity IC50 value) | SMILES
< 50 nM |  | O=C(O)Cc1cnc(Cc2ccc(C(=O)NCCC3CCCCC3)cc2)c2ccccc12 [Example 187]
50 to 500 nM |  | O=C(O)Cc1cnc(Cc2ccc(C(=O)NCCC3=CCCCC3)cc2)c2ccccc12 [Example 188]
≥ 1000 nM |  | COc1ccc(CCNC(=O)c2ccc(Cc3ncc(CC(=O)O)c4ccccc34)cc2)cc1OC [Example 189]
50 to 500 nM |  | O=C(O)Cc1cnc(Cc2ccc(C(=O)NCCc3c(F)cccc3Cl)cc2)c2ccccc12 [Example 190]
50 to 500 nM |  | O=C(O)Cc1cnc(Cc2ccc(C(=O)NCCc3c(Cl)cccc3Cl)cc2)c2ccccc12 [Example 191]
< 50 nM |  | Cc1c(C)c(C)c(CCNC(=O)c2ccc(Cc3ncc(CC(=O)O)c4ccccc34)cc2)c(C)c1C [Example 192]
< 50 nM |  | CC(C)(C)c1ccc(CCNC(=O)c2ccc(Cc3ncc(CC(=O)O)c4ccccc34)cc2)cc1 [Example 193]
< 50 nM |  | O=C(O)Cc1cnc(Cc2ccc(C(=O)NCCc3ccc(-c4ccccc4)cc3)cc2)c2ccccc12 [Example 194]
< 50 nM |  | O=C(O)Cc1cnc(Cc2ccc(C(=O)NCCc3ccc(Oc4ccccc4)cc3)cc2)c2ccccc12 [Example 195]
500 to 1000 nM |  | O=C(O)Cc1cnc(Cc2ccc(C(=O)NCCc3ccc(O)cc3)cc2)c2ccccc12 [Example 196]
50 to 500 nM |  | COc1cccc(CCNC(=O)c2ccc(Cc3ncc(CC(=O)O)c4ccccc34)cc2)c1 [Example 197]
< 50 nM |  | O=C(O)Cc1cnc(Cc2ccc(C(=O)NCCc3ccc(Br)cc3)cc2)c2ccccc12 [Example 199]
50 to 500 nM |  | O=C(O)Cc1cnc(Cc2ccc(C(=O)NCCc3ccc(F)cc3)cc2)c2ccccc12 [Example 200]
< 50 nM | 20 nM | O=C(O)Cc1cnc(Cc2ccc(C(=O)NCCc3ccc(C(F)(F)F)cc3)cc2)c2ccccc12 [Example 201]
50 to 500 nM |  | O=C(O)Cc1cnc(Cc2ccc(C(=O)NCCc3ccc4ccccc4n3)cc2)c2ccccc12 [Example 202]
< 50 nM |  | O=C(O)Cc1cnc(Cc2ccc(C(=O)NCCc3ccc(OC(F)(F)F)cc3)cc2)c2ccccc12 [Example 203]
< 50 nM |  | Cc1ccc(CCNC(=O)c2ccc(Cc3ncc(CC(=O)O)c4ccccc34)cc2)cc1F [Example 204]
< 50 nM |  | O=C(O)Cc1cnc(Cc2ccc(C(=O)NCCc3ccc4ccccc4c3)cc2)c2ccccc12 [Example 205]
50 to 500 nM |  | CN(C)c1ccc(CCNC(=O)c2ccc(Cc3ncc(CC(=O)O)c4ccccc34)cc2)cc1 [Example 206]

IC50 [1] | IC50 (PGD2 100 nM, Fluo-4 calcium fluorescence, read-out: CRTH2 antagonist activity IC50 value) | SMILES
≥ 1000 nM |  | CS(=O)(=O)c1ccc(CCNC(=O)c2ccc(Cc3ncc(CC(=O)O)c4ccccc34)cc2)cc1 [Example 207]
< 50 nM |  | Cc1ccc(CCNC(=O)c2ccc(Cc3ncc(CC(=O)O)c4ccccc34)cc2)c(C)c1 [Example 208]
≥ 1000 nM |  | COc1cc(CCNC(=O)c2ccc(Cc3ncc(CC(=O)O)c4ccccc34)cc2)cc(OC)c1O [Example 209]
< 50 nM |  | O=C(O)Cc1cnc(Cc2ccc(C(=O)NCCc3ccc(F)c(Cl)c3)cc2)c2ccccc12 [Example 210]
50 to 500 nM |  | COc1cc(CCNC(=O)c2ccc(Cc3ncc(CC(=O)O)c4ccccc34)cc2)ccc1C [Example 211]
50 to 500 nM |  | O=C(O)Cc1cnc(Cc2ccc(C(=O)NCCc3cc(F)cc(F)c3)cc2)c2ccccc12 [Example 212]
50 to 500 nM |  | Cc1ccc(F)cc1CCNC(=O)c1ccc(Cc2ncc(CC(=O)O)c3ccccc23)cc1 [Example 213]
≥ 1000 nM |  | O=C(O)Cc1cnc(Cc2ccc(C(=O)NCCC3CCOCC3)cc2)c2ccccc12 [Example 214]
50 to 500 nM |  | O=C(O)Cc1cnc(Cc2ccc(C(=O)NCCc3cc(F)cc(C(F)(F)F)c3)cc2)c2ccccc12 [Example 215]
50 to 500 nM |  | O=C(O)Cc1cnc(Cc2ccc(C(=O)NCCc3cc(F)cc(Cl)c3)cc2)c2ccccc12 [Example 216]
< 50 nM |  | Cc1cccc(C)c1CCNC(=O)c1ccc(Cc2ncc(CC(=O)O)c3ccccc23)cc1 [Example 217]
< 50 nM |  | O=C(O)Cc1cnc(Cc2ccc(C(=O)NCCc3ccc4c(c3)CCCC4)cc2)c2ccccc12 [Example 218]
50 to 500 nM |  | O=C(O)Cc1cnc(Cc2ccc(C(=O)NCCc3cc(Cl)cc(Cl)c3)cc2)c2ccccc12 [Example 219]
≥ 1000 nM |  | CNC(=O)c1ccc(Cc2ncc(CC(=O)O)c3ccccc23)cc1 [Example 220]
< 50 nM |  | O=C(O)Cc1cnc(Cc2ccc(C(=O)NCCc3ccc(Cl)c(F)c3)cc2)c2ccccc12 [Example 221]
< 50 nM |  | O=C(O)Cc1cnc(Cc2ccc(C(=O)NCCc3cc(C(F)(F)F)cc(C(F)(F)F)c3)cc2)c2ccccc12 [Example 222]
50 to 500 nM |  | N#Cc1ccc(CCNC(=O)c2ccc(Cc3ncc(CC(=O)O)c4ccccc34)cc2)cc1 [Example 223]
50 to 500 nM |  | O=C(O)Cc1cnc(Cc2ccc(C(=O)NCCc3cc(Cl)ccc3Cl)cc2)c2ccccc12 [Example 224]
< 50 nM |  | CC(C)Oc1ccc(CCNC(=O)c2ccc(Cc3ncc(CC(=O)O)c4ccccc34)cc2)cc1 [Example 225]
